In patent publication US20200281202A1 (priority 2017, published 2020):

Legend:
[1] = test system: Phytophthora infestans; assay: microbe, parasite or virus in culture; type: cell-based; conditions: Phytophthora infestans, 168 h, read-out: control (radial growth) compared to the untreated check
[2] = test system: Phytophthora infestans; assay: whole plant or invertebrate; type: in vivo; conditions: Phytophthora infestans, in Solanum lycopersicum, read-out: control (disease severity) compared to the untreated check
[3] = test system: Plasmopara viticola; assay: Plasmopara viticola test in grape, preventive; type: in vivo; conditions: Plasmopara viticola, 50 ppm spray, grape seedlings inoculated one day after treatment, read-out: control (disease severity) compared to the untreated check
Description: Example B: Plasmopara viticola Test in Grape
Compounds were dissolved in 2% DMSO/Acetone & then mixed with water to calibrated spray volume of 50 ml. This 50 ml spray solution was poured into the spray bottles for further applications.
To test the preventive activity of compounds, five week old healthy grape seedlings raised in the greenhouse were sprayed with active compound preparation at the stated application rates inside the spray cabinets using hallow-cone nozzles. One day after treatment, the plants were inoculated with inoculum suspension (Cold sterile water) containing 6×10^6 Plasmopara viticola inoculum. The inoculated plants were then kept in greenhouse chamber at 18-21° C. temperature and 95-100% relative humidity for disease expression. Compounds
A visual assessment of compound's performance was carried by rating the disease severity (0-100% scale) on treated plants on 3, 7, 10 and 15 days after application. Efficacy (% control) of the compounds was calculated by comparing the disease rating in the treatment with untreated control. The sprayed plants were also assessed for compound's phytotoxic effects by recording symptoms like necrosis, chlorosis and stunting.

**Q.** For `O=C(COc1ncccc1C(F)(F)F)N1CCC(c2nc(C3=NOC(c4c(Cl)cccc4Cl)C3)cs2)CC1` (stereo not drawn) [Compound 27], which inhibition of growth at 30 ppm [1] is on record?
**A.** The inhibition of growth at 30 ppm was 70%.

**Q.** And the pest or weed control at 50 ppm [2]?
**A.** Its pest or weed control at 50 ppm is 90%.

**Q.** And the pest or weed control at 50 ppm [3]?
**A.** Its pest or weed control at 50 ppm is 90%.

**Q.** What does the source list for `Cc1ccc(C(F)(F)F)c(OCC(=O)N2CCC(c3nc(C4=NOC(c5c(Cl)cc(Cl)cc5Cl)C4)cs3)CC2)n1` (stereo not drawn) [Compound 39, 2-((6-methyl-3-(trifluoromethyl)pyridin-2-yl)oxy)-1-(4-(4-(5-(2,4,6-trichlorophenyl)-4,5-dihydroisoxazol-3-yl)thiazol-2-yl)piperidin-1-yl)ethan-1-one]?
**A.** inhibition of growth at 30 ppm [1]: 70%; pest or weed control at 50 ppm [2]: 90%; pest or weed control at 50 ppm [3]: 90%

**Q.** Which inhibition of growth at 30 ppm [1] does the source give for `Cn1nc(OCC(=O)N2CCC(c3nc(C4=NOC(c5c(Cl)cccc5Cl)C4)cs3)CC2)cc1C(F)(F)F` (stereo not drawn) [Compound 15, 1-(4-(4-(5-(2,6-dichlorophenyl)-4,5-dihydroisoxazol-3-yl)thiazol-2-yl)piperidin-1-yl)-2-((1-methyl-5-(trifluoromethyl)-1H-pyrazol-3-yl)oxy)ethan-1-one] here?
**A.** The inhibition of growth at 30 ppm was 70%.

**Q.** And the pest or weed control at 50 ppm [2]?
**A.** The pest or weed control at 50 ppm was 90%.

**Q.** And the pest or weed control at 50 ppm [3]?
**A.** The pest or weed control at 50 ppm was 90%.

**Q.** For `O=C(COc1ncccc1C(F)F)N1CCC(c2nc(C3=NOC(c4c(F)cccc4F)C3)cs2)CC1` (stereo not drawn) [Compound 86, 2-((3-(difluoromethyl)pyridin-2-yl)oxy)-1-(4-(4-(5-(2,6-difluorophenyl)-4,5-dihydroisoxazol-3-yl)thiazol-2-yl)piperidin-1-yl)ethan-1-one], which inhibition of growth at 30 ppm [1] is on record?
**A.** Its inhibition of growth at 30 ppm is 70%.

**Q.** And the pest or weed control at 50 ppm [2]?
**A.** The pest or weed control at 50 ppm was 90%.

**Q.** And the pest or weed control at 50 ppm [3]?
**A.** The pest or weed control at 50 ppm was 90%.

**Q.** What does the source list for `Cc1cccnc1OCC(=O)N1CCC(c2nc(C3=NOC(c4c(Cl)cc(Cl)cc4Cl)C3)cs2)CC1` (stereo not drawn) [Compound 79]?
**A.** inhibition of growth at 30 ppm [1]: 70%; pest or weed control at 50 ppm [2]: 90%; pest or weed control at 50 ppm [3]: 90%

**Q.** `O=C(COc1ncccc1C(F)(F)F)N1CCC(c2nc(C3=NOC(c4ccccc4F)C3)cs2)CC1` (stereo not drawn) [Compound 66, 1-(4-(4-(5-(2-fluorophenyl)-4,5-dihydroisoxazol-3-yl)thiazol-2-yl)piperidin-1-yl)-2-((3-(trifluoromethyl)pyridin-2-yl)oxy)ethan-1-one] was tested. Which inhibition of growth at 30 ppm [1] did it give?
**A.** Its inhibition of growth at 30 ppm is 70%.

**Q.** What about the pest or weed control at 50 ppm [2] of the same compound?
**A.** Its pest or weed control at 50 ppm is 90%.

**Q.** And the pest or weed control at 50 ppm [3]?
**A.** Its pest or weed control at 50 ppm is 90%.
